Where a name gives a salt, the structure may show the parent alone.
biological target: T1, SMO (Mus musculus, UniProt P56726); test: Smoothened (SMO)/Sonic Hedgehog (SHh) Transient Transcriptional Activation Assay (Gli-luciferase reporter in C3H10T1/2 cells); assay type: cell-based, murine; conditions: 2 μM test compound, SHh 250 ng/ml, 20 hrs
T1 construct: endogenous in cells; host or cells: C3H10T1/2 (ATCC #CCL-226)
In short: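 Luminescence (Dual-Glo) measured after 20 h co-exposure at 37 °C to 250 ng/ml human SHh and compound at 2 uM down to 2 nM final. Cells were C3H10T1/2 carrying a transfected murine 10× Gli response-element luciferase construct with pEGFP, starved 20 h in 0.5% calf serum beforehand.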

T1 sequence (P56726 33-793): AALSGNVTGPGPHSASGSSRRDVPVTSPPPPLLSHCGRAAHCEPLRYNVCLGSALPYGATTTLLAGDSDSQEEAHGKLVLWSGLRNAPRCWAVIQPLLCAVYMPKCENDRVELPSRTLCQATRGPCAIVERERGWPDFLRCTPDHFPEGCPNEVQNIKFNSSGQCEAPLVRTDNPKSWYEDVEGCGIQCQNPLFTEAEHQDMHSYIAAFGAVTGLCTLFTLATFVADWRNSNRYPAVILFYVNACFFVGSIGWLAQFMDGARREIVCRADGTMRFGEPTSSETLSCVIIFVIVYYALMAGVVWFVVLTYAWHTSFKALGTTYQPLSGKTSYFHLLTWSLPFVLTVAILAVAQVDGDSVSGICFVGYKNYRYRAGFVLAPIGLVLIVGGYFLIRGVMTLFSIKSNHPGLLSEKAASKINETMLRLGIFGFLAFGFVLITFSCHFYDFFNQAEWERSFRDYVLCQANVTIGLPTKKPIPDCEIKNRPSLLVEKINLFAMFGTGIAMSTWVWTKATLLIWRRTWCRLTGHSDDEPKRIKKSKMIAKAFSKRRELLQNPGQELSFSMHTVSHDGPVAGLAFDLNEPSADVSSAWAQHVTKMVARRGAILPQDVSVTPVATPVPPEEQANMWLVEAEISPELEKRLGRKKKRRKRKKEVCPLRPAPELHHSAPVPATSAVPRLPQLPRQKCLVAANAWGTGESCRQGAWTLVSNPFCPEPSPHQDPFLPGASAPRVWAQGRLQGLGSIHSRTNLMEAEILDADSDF

SMO CELL % INHIBITION @ 2 μM	Compound
85.2%	Cl.O=C(N[C@H]1CCC[C@H](c2nc3ccccc3[nH]2)C1)c1ccc2c(c1)CN(CC1CC1)CC2 [Example 291, N-[(1S,3S)-3-(1H-benzimidazol-2-yl)cyclohexyl]-2-(cyclopropyl-methyl)-1,2,3,4-tetrahydroisoquino-line-7-carboxamide HCl]

same assay, conditions: C3H 10T1/2, 2 μM test compound, SHh 250 ng/ml, 20 hrs, read-out: SMO CELL % INHIBITION @ 2 μM

Compound	inhibition at 2 µM
[N-]=[N+]=Nc1ccc(C(=O)NC23CCCC(c4nc5ccccc5[nH]4)(C2)C3)cc1 [Example 277, 4-azido-N-[5-(1H-benzimidazol-2-yl)bicyclo[3.1.1]hept-1-yl]benzamide]	82.3%
O=C(NC12CCCC(c3nc4ccccc4[nH]3)(C1)C2)c1ccc(C(=O)c2ccccc2)cc1 [Example 278, N-[5-(1H-benzimidazol-2-yl)bicyclo[3.1.1]hept-1-yl]-4-benzoylbenz-amide]	99.9%
O=C(NC12CCCC(c3nc4ccccc4[nH]3)(C1)C2)c1ccc2c(c1)CCCO2 [Example 279, N-[5-(1H-benzimidazol-2-yl)bicyclo[3.1.1]hept-1-yl]chromane-6-carboxamide]	92.6%
CN1C(=O)COc2ccc(C(=O)N[C@@H]3CCC[C@H](c4nc5cc(C(F)(F)F)ccc5[nH]4)C3)cc21 [Example 280, 4-methyl-3-oxo-N-{(1R,3S)-3-[5-(trifluoromethyl)-1H-benzimidazol-2-yl]cyclohexyl}-3,4-dihydro-2H-1,4-benzoxazine-6-carboxamide HCl]	112%
O=C(N[C@@H]1CCC[C@H](c2nc3cc(C(F)(F)F)ccc3[nH]2)C1)c1n[nH]c2c1CCCC2 [Example 281, N-{(1R,3S)-3-[5-(trifluoromethyl)-1H-benzimidazol-2-yl]cyclohexyl]-4,5,6,7-tetrahydro-1H-indazol-3-carboxamide HCl]	98.5%
Cc1cccc(=O)n1CC(=O)N[C@@H]1CCC[C@H](c2nc3cc(C(F)(F)F)ccc3[nH]2)C1 [Example 282, 2-(6-methyl-2-oxopyridin-1(2H)-yl)-N-{(1R,3S)-3-[5-(trifluoromethyl)-1H-benzimidazol-2-yl]cyclohexyl} acetamide HCl]	85.2%
O=C(N[C@@H]1CCC[C@H](c2nc3cc(C(F)(F)F)ccc3[nH]2)C1)c1n[nH]c2c1CCCCCC2 [Example 283, N-{(1R,3S)-3-[5-(trifluoromethyl)-1H-benzimidazol-2-yl]cyclohexyl} 4,5,6,7,8,9-hexahydro-1H-cycloocta[c]-pyrazole-3-carboxamide HCl]	106%
Cc1nn(C)c2sc(C(=O)N[C@@H]3CCC[C@H](c4nc5cc(C(F)(F)F)ccc5[nH]4)C3)cc12 [Example 284, 1,3-dimethyl-N-{(1R,3S)-3-[5-(trifluoromethyl)-1H-benzimidazol-2-yl]cyclohexyl}-1H-thieno[2,3-c]pyrazole-5-carboxamide HCl]	94.9%
O=C1CCc2cc(C(=O)N[C@@H]3CCC[C@H](c4nc5cc(C(F)(F)F)ccc5[nH]4)C3)ccc2N1 [Example 285, 2-oxo-N-{(1R,3S)-3-[5-(trifluoromethyl)-1H-benzimidazol-2-yl]cyclohexyl}-1,2,3,4-tetrahydroquino-line-6-carboxamide HCl]	111%
O=C1Cc2cc(C(=O)N[C@@H]3CCC[C@H](c4nc5cc(C(F)(F)F)ccc5[nH]4)C3)ccc2N1 [Example 286, 2-oxo-N-{(1R,3S)-3-[5-(trifluoromethyl)-1H-benzimidazol-2-yl]cyclohexyl} indoline-5-carboxamide HCl]	114%
O=C(N[C@@H]1CCC[C@H](c2nc3cc(C(F)(F)F)ccc3[nH]2)C1)c1ccc2c(c1)CCNC2 [Example 287, N-{(1R,3S)-3-[5-(trifluoromethyl)-1H-benzimidazol-2-yl]cyclohexyl}-1,2,3,4-tetrahydroisoquino-line-6-carboxamide HCl]	107%
O=C(NC12CCCC(c3nc4cc(C(F)(F)F)ccc4[nH]3)(C1)C2)c1c(F)c(F)c(F)c(F)c1F [Example 288, 2,3,4,5,6-pentafluoro-N-{5-[5-(trifluoromethyl)-1H-benzimidazol-2-yl]bicyclo[3.1.1]hept-1-yl}benzamide]	93.3%
O=C(N[C@@H]1CCC[C@H](c2nc3cc(C(F)(F)F)ccc3[nH]2)C1)c1ccc2c(c1)CN(CC1CC1)CC2 [Example 290, 2-(cyclopropyl-methyl)-N-{(1R,3S)-3-[5-(trifluoromethyl)-1H-benzimidazol-2-yl]cyclohexyl}-1,2,3,4-tetrahydroisoquino-line-7-carboxamide HCl]	104%
COCCNc1ccc(C(=O)N[C@@H]2CCC[C@H](c3nc4cc(C(F)(F)F)ccc4[nH]3)C2)cn1 [Example 292, 6-[(2-methoxyethyl)amino]-N-{(1R,3S)-3-[5-(trifluoromethyl)-1H-benzimidazol-2-yl]cyclohexyl} nicotinamide HCl]	104%
CN(C)CCNc1ccc(C(=O)N[C@@H]2CCC[C@H](c3nc4cc(C(F)(F)F)ccc4[nH]3)C2)cn1 [Example 293, 6-{[2-(dimethylamino)ethyl]amino}-N-{(1R,3S)-3-[5-(trifluoromethyl)-1H-benzimidazol-2-yl]cyclohexyl}-nicotinamide HCl]	106%
O=C1COc2ccc(C(=O)N[C@@H]3CCCC(c4nc5ccccc5[nH]4)C3)cc2N1 (stereo partly drawn) [Example 294, N-[(1R)-3-(1H-benzimidazol-2-yl)cyclohexyl]-3-oxo-3,4-dihydro-2H-1,4-benzoxazine-6-carboxamide (+)-tartrate]	62.5%

The next lines start with the values.

inhibition at 2 µM	Compound
105%	O=C(N[C@@H]1CCC[C@H](c2nc3cc(C(F)(F)F)ccc3[nH]2)C1)c1ccc2c(c1)CCN(CC1CC1)C2 [Example 295]
106%	O=C(N[C@@H]1CCC[C@H](c2nc3cc(Cl)ccc3[nH]2)C1)c1ccc2c(c1)CN(CC1CC1)CC2 [Example 296, N-[(1R,3S)-3-(5-chloro-1H-benzimidazol-2-yl)cyclohexyl]-2-(cyclopropyl-methyl)-1,2,3,4-tetrahydroisoquino-line-7-carboxamide (+)-tartrate]
106%	CN1C(=O)COc2ccc(C(=O)N[C@@H]3CCC[C@H](c4nc5ccccc5n4C)C3)cc21 [Example 297, 4-methyl-N-[(1R,3S)-3-(1-methyl-1H-benzimidazol-2-yl)cyclohexyl]-3-oxo-3,4-dihydro-2H-1,4-benzoxazine-6-carboxamide (+)-tartrate]
104%	COc1cc(OC)cc(C(=O)N[C@@H]2CCC[C@H](c3nc4cc(Cl)ccc4[nH]3)C2)c1 [Example 298, N-[(1R,3S)-3-(5-chloro-1H-benzimidazol-2-yl)cyclohexyl]-3,5-dimethoxybenz-amide (+)-tartrate]
105%	O=C1COc2ccc(C(=O)N[C@@H]3CCC[C@H](c4nc5cc(Cl)ccc5[nH]4)C3)cc2N1 [Example 299, N-[(1R,3S)-3-(5-chloro-1H-benzimidazol-2-yl)cyclohexyl]-3-oxo-3,4-dihydro-2H-1,4-benzoxazine-6-carboxamide (+)-tartrate]
106%	O=C1CCc2cc(C(=O)N[C@@H]3CCC[C@H](c4nc5cc(Cl)ccc5[nH]4)C3)ccc2N1 [Example 300, N-[(1R,3S)-3-(5-chloro-1H-benzimidazol-2-yl)cyclohexyl]-2-oxo-1,2,3,4-tetrahydroquino-line-6-carboxamide (+)-tartrate]
108%	CN1C(=O)COc2ccc(C(=O)N[C@@H]3CCC[C@H](c4nc5cc(Cl)ccc5[nH]4)C3)cc21 [Example 301, N-[(1R,3S)-3-(5-chloro-1H-benzimidazol-2-yl)cyclohexyl]-4-methyl-3-oxo-3,4-dihydro-2H-1,4-benzoxazine-6-carboxamide (+)-tartrate]
97.1%	[N-]=[N+]=Nc1c(F)c(F)c(C(=O)NC23CCCC(c4nc5cc(C(F)(F)F)ccc5[nH]4)(C2)C3)c(F)c1F [Example 302, 4-azido-2,3,5,6-tetrafluoro-N-{5-[5-(trifluoromethyl)-1H-benzimidazol-2-yl]bicyclo[3.1.1]hept-1-yl}benzamide]
111%	O=C(N[C@@H]1CCC[C@H](c2nc3cc(C(F)(F)F)ccc3[nH]2)C1)c1ccc2c(c1)CNCC2 [Example 303, N-{(1R,3S)-3-[5-(trifluoromethyl)-1H-benzimidazol-2-yl]cyclohexyl}-1,2,3,4-tetrahydroiso-quinoline-7-carboxamide HCl]
111%	CN1C(=O)CCc2cc(C(=O)N[C@@H]3CCC[C@H](c4nc5cc(C(F)(F)F)ccc5[nH]4)C3)ccc21 [Example 304, 1-methyl-2-oxo-N-[(1R,3S)-3-[5-(trifluoromethyl)-1H-benzimidazol-2-yl]cyclohexyl}-1,2,3,4-tetrahydroquin-oline-6-carboxamide (+)-tartrate]
81.2%	CN1C(=O)CCc2cc(C(=O)N[C@@H]3CCC[C@H](c4nc5cc(Cl)ccc5[nH]4)C3)ccc21 [Example 305, N-[(1R,3S)-3-(5-chloro-1H-benzimidazol-2-yl)cyclohexyl]-1-methyl-2-oxo-1,2,3,4-tetrahydroquino-line-6-carboxamide (+)-tartrate]
110%	Cc1cc2c(cc1C(=O)NC13CCCC(c4nc5cc(C(F)(F)F)ccc5[nH]4)(C1)C3)OCCO2 [Example 306, 7-methyl-N-{5-[5-(trifluoromethyl)-1H-benzimidazol-2-yl]bicyclo[3.1.1]hept-1-yl}-2,3-dihydro-1,4-benzodioxine-6-carboxamide]
90.5%	Cc1cc2c(cc1C(=O)N[C@@H]1CCC[C@H](c3nc4ccccc4[nH]3)C1)OCCO2 [Example 307, N-[(1R,3S)-3-(1H-benzimidazol-2-yl)cyclohexyl]-7-methyl-2,3-dihydro-1,4-benzodioxine-6-carboxamide]
96.2%	O=C(N[C@@H]1CCC[C@H](c2nc3ccccc3[nH]2)C1)c1ccc2c(c1)CNCC2 [Example 308, N-[(1R,3S)-3-(1H-benzimidazol-2-yl)cyclohexyl]-1,2,3,4-tetrahydroiso-quinoline-7-carboxamide HCl]

Reference: patent publication US20100029615A1, “BENZIMIDAZOLE DERIVATIVES” (priority 2006, published 2010)
